According to ChEMBL document CHEMBL3991601, “The target landscape of clinical kinase drugs” (Science, 2017):
Calls of active or inactive are those of the source.

Columns and labels:
[1] = target: TGF-beta receptor type-2 (Homo sapiens, UniProt P37173)
[2] = target: T1, Phosphatidylinositol 5-phosphate 4-kinase type-2 alpha (Homo sapiens, UniProt P48426)
T1 sequence (P48426 whole entry): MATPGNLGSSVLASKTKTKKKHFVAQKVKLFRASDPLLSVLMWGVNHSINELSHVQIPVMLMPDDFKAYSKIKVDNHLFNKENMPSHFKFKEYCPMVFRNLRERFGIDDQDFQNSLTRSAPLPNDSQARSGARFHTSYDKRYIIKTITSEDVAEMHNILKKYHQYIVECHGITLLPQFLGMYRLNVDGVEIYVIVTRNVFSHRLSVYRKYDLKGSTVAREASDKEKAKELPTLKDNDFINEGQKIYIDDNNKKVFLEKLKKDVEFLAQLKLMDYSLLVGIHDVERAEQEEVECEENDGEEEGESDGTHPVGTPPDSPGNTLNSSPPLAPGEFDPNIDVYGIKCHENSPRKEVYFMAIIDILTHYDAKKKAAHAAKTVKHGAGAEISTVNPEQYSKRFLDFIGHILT

[3] = target: Casein kinase II subunit alpha' (Homo sapiens, UniProt P19784)
Casein kinase II subunit alpha', sequence (P19784 whole entry): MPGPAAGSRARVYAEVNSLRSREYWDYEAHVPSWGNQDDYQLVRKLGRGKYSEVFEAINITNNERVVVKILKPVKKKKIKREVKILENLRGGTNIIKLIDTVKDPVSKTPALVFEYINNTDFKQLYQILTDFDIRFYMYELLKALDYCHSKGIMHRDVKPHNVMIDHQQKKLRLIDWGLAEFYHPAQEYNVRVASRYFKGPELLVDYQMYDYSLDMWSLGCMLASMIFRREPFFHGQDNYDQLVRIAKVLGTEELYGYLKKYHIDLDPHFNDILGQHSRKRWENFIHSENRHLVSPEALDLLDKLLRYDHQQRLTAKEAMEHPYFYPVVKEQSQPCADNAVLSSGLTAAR

[4] = target: Serine/threonine-protein kinase pim-1 (Homo sapiens, UniProt P11309)
Serine/threonine-protein kinase pim-1, sequence (P11309 whole entry): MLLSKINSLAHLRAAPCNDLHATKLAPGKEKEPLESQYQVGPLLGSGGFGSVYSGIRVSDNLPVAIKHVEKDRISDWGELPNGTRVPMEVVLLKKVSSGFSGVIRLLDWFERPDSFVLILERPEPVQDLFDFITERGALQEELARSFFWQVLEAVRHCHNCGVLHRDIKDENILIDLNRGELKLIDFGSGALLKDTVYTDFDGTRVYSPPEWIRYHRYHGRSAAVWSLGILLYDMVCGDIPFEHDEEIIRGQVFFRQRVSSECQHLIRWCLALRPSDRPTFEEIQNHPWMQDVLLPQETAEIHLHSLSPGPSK

[5] = target: Serine/threonine-protein kinase 16 (Homo sapiens, UniProt O75716)
Serine/threonine-protein kinase 16, sequence (O75716 whole entry): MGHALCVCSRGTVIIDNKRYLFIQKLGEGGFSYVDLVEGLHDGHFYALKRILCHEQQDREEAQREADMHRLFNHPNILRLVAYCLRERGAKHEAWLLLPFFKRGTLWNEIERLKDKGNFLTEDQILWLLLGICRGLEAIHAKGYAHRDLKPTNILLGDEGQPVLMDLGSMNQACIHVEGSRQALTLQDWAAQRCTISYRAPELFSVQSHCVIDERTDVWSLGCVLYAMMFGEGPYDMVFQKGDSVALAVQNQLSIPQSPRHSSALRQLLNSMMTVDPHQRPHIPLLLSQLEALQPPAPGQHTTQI

[6] = target: T2, Serine/threonine-protein kinase Nek9 (Homo sapiens, UniProt Q8TD19)
T2 sequence (Q8TD19 whole entry): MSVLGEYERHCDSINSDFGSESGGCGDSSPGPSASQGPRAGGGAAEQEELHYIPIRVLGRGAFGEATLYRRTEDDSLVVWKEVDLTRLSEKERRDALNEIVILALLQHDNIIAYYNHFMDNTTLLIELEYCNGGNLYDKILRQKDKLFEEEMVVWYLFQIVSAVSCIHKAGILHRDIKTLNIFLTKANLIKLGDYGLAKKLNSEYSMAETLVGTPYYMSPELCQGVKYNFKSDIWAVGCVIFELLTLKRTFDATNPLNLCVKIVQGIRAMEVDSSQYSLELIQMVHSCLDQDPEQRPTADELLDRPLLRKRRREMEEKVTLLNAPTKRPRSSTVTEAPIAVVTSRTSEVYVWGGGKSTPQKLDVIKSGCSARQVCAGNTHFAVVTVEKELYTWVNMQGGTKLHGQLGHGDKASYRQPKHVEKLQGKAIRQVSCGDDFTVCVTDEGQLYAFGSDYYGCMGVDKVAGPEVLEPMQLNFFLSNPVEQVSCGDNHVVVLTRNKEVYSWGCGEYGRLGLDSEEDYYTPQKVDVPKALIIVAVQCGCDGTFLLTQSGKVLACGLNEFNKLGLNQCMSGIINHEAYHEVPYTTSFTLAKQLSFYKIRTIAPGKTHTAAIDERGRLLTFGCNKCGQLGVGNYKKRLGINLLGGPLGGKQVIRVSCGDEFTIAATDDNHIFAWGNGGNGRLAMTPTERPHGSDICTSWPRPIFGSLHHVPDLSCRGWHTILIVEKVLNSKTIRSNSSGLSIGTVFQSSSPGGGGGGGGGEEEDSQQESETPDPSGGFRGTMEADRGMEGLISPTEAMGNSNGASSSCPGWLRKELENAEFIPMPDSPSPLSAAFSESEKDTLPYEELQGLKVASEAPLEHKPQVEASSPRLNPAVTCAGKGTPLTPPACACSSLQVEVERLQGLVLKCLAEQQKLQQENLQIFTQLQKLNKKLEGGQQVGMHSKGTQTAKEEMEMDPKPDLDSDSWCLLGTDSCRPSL

[7] = target: Casein kinase I isoform epsilon (Homo sapiens, UniProt P49674)
Casein kinase I isoform epsilon, sequence (P49674 whole entry, canonical isoform): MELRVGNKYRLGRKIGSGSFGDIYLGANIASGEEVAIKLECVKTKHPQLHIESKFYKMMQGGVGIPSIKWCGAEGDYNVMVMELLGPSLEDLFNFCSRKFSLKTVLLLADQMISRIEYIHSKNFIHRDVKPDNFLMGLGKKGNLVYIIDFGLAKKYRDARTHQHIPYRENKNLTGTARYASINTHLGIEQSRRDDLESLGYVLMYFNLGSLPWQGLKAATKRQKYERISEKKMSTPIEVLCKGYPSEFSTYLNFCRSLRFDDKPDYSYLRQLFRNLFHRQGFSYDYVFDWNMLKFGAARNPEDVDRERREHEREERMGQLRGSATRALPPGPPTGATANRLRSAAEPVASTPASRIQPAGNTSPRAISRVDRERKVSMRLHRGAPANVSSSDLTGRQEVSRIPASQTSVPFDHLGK

[8] = target: T3, Scaffold protein ILK (Homo sapiens, UniProt Q13418)
T3 sequence (Q13418 whole entry): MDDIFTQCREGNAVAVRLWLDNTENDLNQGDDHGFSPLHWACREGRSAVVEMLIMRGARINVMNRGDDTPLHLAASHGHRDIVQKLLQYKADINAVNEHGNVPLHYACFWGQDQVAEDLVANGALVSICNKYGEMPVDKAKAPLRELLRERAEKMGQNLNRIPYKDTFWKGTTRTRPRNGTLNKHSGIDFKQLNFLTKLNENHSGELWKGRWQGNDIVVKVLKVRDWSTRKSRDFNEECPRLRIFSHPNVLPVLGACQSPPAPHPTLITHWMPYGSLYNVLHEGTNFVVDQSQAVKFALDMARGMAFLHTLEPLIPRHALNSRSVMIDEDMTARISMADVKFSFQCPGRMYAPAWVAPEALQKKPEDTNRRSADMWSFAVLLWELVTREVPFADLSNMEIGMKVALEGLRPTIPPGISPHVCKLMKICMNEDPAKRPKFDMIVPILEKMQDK

[9] = target: Obg-like ATPase 1 (Homo sapiens, UniProt Q9NTK5)
Obg-like ATPase 1, sequence (Q9NTK5 whole entry, looked up): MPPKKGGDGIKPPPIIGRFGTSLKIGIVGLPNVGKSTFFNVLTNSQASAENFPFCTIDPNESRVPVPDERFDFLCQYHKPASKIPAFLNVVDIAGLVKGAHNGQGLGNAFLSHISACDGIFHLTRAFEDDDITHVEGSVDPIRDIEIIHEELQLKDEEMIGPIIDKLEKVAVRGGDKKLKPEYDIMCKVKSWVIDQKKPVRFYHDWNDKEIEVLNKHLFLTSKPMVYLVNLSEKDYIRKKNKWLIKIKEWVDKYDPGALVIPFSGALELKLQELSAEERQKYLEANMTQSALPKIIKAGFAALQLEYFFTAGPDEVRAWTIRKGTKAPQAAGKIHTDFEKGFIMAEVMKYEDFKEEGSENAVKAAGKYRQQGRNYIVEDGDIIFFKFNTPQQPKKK

[10] = target: Activin receptor type-2B (Homo sapiens, UniProt Q13705)
Activin receptor type-2B, sequence (Q13705 whole entry): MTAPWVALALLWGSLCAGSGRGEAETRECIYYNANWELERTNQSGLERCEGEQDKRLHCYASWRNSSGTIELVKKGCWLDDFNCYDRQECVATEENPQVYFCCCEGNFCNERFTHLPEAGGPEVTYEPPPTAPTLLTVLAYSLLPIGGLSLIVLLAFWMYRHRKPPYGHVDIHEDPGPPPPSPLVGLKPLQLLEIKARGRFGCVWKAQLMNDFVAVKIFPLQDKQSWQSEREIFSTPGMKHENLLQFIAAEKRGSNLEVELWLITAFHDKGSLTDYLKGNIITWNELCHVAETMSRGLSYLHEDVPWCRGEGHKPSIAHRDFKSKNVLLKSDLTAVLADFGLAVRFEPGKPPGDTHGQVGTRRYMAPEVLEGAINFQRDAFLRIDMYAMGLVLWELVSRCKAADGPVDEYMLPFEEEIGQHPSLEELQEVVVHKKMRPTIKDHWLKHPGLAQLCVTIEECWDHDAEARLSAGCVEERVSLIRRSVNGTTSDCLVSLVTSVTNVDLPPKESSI

[11] = target: Serine/threonine-protein kinase N2 (Homo sapiens, UniProt Q16513)
Serine/threonine-protein kinase N2, sequence (Q16513 whole entry): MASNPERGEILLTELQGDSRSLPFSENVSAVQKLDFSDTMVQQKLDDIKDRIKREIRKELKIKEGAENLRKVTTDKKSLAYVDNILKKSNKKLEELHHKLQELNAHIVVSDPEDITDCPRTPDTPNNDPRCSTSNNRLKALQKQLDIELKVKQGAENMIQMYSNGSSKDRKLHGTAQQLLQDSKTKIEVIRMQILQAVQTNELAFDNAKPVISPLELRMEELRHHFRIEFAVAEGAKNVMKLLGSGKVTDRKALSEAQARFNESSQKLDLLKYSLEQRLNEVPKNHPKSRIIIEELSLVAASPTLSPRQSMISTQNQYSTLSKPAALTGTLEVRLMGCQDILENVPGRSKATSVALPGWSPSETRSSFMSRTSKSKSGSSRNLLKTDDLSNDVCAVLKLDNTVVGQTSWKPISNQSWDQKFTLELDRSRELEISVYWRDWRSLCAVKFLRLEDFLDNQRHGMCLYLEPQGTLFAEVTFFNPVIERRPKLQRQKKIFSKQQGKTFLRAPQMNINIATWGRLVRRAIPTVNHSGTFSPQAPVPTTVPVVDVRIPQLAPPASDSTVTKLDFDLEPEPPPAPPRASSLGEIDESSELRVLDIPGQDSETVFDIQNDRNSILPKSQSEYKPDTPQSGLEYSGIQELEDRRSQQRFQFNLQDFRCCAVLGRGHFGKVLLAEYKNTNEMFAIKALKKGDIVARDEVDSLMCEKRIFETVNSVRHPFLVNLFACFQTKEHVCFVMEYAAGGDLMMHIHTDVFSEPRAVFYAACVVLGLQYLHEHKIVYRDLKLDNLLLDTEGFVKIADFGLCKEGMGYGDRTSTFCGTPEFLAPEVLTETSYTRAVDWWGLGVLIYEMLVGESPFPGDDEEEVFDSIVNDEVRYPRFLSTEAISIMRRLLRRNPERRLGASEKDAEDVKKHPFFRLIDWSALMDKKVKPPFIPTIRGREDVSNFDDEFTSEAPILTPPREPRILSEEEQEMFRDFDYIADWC

[12] = target: T4, Signal recognition particle receptor subunit alpha (Homo sapiens, UniProt P08240)
T4 sequence (P08240 whole entry): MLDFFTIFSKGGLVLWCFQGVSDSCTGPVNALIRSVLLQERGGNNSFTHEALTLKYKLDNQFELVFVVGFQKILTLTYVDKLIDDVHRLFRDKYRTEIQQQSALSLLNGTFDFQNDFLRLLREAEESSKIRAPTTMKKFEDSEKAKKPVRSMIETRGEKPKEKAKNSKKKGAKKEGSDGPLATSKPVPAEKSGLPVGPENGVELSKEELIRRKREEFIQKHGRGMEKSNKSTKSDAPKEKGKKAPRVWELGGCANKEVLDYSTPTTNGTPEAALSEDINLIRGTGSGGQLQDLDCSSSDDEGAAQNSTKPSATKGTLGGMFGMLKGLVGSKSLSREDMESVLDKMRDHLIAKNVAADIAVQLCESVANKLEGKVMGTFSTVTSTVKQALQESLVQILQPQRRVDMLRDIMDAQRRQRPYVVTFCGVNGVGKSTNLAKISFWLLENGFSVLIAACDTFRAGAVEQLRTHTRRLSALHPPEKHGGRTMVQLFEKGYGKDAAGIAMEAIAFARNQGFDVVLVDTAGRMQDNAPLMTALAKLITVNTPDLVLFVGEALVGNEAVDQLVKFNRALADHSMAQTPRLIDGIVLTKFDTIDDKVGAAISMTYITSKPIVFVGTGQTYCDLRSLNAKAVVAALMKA
Further: in the data inactive means no Kd found up to 30 µM.

TGF-beta receptor type-2, sequence (P37173 whole entry): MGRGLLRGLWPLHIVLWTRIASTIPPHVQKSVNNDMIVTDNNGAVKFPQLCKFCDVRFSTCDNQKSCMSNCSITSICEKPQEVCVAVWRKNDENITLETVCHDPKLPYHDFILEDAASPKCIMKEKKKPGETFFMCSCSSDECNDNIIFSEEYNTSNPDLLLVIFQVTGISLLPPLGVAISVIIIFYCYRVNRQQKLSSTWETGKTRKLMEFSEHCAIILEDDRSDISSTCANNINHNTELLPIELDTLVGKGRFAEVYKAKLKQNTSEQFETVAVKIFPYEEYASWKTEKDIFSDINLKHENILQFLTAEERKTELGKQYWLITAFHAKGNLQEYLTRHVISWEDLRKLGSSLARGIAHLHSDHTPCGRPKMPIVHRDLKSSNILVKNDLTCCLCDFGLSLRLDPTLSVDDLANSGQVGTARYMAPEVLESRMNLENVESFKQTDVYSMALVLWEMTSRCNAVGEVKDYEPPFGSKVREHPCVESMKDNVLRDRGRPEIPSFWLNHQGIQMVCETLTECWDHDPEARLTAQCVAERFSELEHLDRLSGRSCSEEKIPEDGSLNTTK

Row | SMILES | Kd [1] | Kd [2] | Kd [3] | Kd [4] | Kd [5] | Kd [7] | Kd [8] | Kd [9] | Kd [10] | Kd [11] | Kd [12] | Kd [6]
1 | O=C(Nc1nc2cccc(-c3ccc(CN4CCS(=O)(=O)CC4)cc3)n2n1)C1CC1 [FILGOTINIB] | > 30 µM (inactive) | > 30 µM (inactive) | > 30 µM (inactive) | > 30 µM (inactive) | > 30 µM (inactive) | > 30 µM (inactive) | > 30 µM (inactive) | > 30 µM (inactive) | > 30 µM (inactive) | > 30 µM (inactive) | > 30 µM (inactive) | > 30 µM (inactive)
2 | Cc1cccc(-c2nn3c(c2-c2ccnc4ccc(C(N)=O)cc24)CCC3)n1 [GALUNISERTIB] | > 30 µM (inactive) | > 30 µM (inactive) | > 30 µM (inactive) | > 30 µM (inactive) | > 30 µM (inactive) | 7.9 µM (active) | > 30 µM (inactive) | > 30 µM (inactive) | > 30 µM (inactive) | > 30 µM (inactive) | > 30 µM (inactive) | > 30 µM (inactive)
3 | CNC(=O)c1cccc2cc(Oc3ccnc4cc(OCC5(N)CC5)c(OC)cc34)ccc12 [LUCITANIB] | > 30 µM (inactive) | > 30 µM (inactive) | > 30 µM (inactive) | > 30 µM (inactive) | > 30 µM (inactive) | > 30 µM (inactive) | > 30 µM (inactive) | > 30 µM (inactive) | > 30 µM (inactive) | > 30 µM (inactive) | > 30 µM (inactive) | > 30 µM (inactive)
4 | O=c1[nH]ccc2cc(OC3CCNCC3)ccc12 [SAR-407899 FREE BASE] | > 30 µM (inactive) | > 30 µM (inactive) | > 30 µM (inactive) | > 30 µM (inactive) | > 30 µM (inactive) | > 30 µM (inactive) | > 30 µM (inactive) | > 30 µM (inactive) | > 30 µM (inactive) | 0.008 µM (active) | > 30 µM (inactive) | > 30 µM (inactive)
5 | CO[C@H]1C[C@@H]2CC[C@@H](C)[C@@](O)(O2)C(=O)C(=O)N2CCCC[C@H]2C(=O)O[C@H]([C@H](C)C[C@@H]2CC[C@@H](O)[C@H](OC)C2)CC(=O)[C@H](C)/C=C(\C)[C@@H](O)[C@@H](OC)C(=O)[C@H](C)C[C@H](C)/C=C/C=C/C=C/1C [SIROLIMUS] | > 30 µM (inactive) | > 30 µM (inactive) | > 30 µM (inactive) | > 30 µM (inactive) | > 30 µM (inactive) | > 30 µM (inactive) | > 30 µM (inactive) | > 30 µM (inactive) | > 30 µM (inactive) | > 30 µM (inactive) | > 30 µM (inactive) | > 30 µM (inactive)

Further lines, with some results ahead:

Row | Kd [1] | Kd [2] | Kd [3] | Kd [4] | Kd [5] | Kd [7] | Kd [8] | Kd [9] | Kd [10] | Kd [11] | Kd [12] | SMILES | Kd [6]
6 | > 30 µM (inactive) | > 30 µM (inactive) | > 30 µM (inactive) | > 30 µM (inactive) | > 30 µM (inactive) | > 30 µM (inactive) | > 30 µM (inactive) | > 30 µM (inactive) | > 30 µM (inactive) | > 30 µM (inactive) | > 30 µM (inactive) | COCC(=O)NC/C=C/c1ccc2ncnc(Nc3ccc(Oc4ccc(C)nc4)c(C)c3)c2c1 [CP-724714] | > 30 µM (inactive)
7 | > 30 µM (inactive) | > 30 µM (inactive) | > 30 µM (inactive) | > 30 µM (inactive) | > 30 µM (inactive) | > 30 µM (inactive) | > 30 µM (inactive) | > 30 µM (inactive) | > 30 µM (inactive) | > 30 µM (inactive) | > 30 µM (inactive) | C#Cc1cccc(Nc2ncnc3cc(OC)c(OCCCCCCC(=O)NO)cc23)c1 [CUDC-101] | > 30 µM (inactive)
8 | > 30 µM (inactive) | > 30 µM (inactive) | > 30 µM (inactive) | > 30 µM (inactive) | > 30 µM (inactive) | > 30 µM (inactive) | > 30 µM (inactive) | > 30 µM (inactive) | > 30 µM (inactive) | > 30 µM (inactive) | > 30 µM (inactive) | COc1ccc(S(=O)(=O)N(C(C)=O)c2ccccc2/C=C/c2cc[n+]([O-])cc2)cc1 [HMN-214] | > 30 µM (inactive)
9 | > 30 µM (inactive) | > 30 µM (inactive) | > 30 µM (inactive) | > 30 µM (inactive) | > 30 µM (inactive) | > 30 µM (inactive) | > 30 µM (inactive) | > 30 µM (inactive) | > 30 µM (inactive) | > 30 µM (inactive) | > 30 µM (inactive) | NC1(c2ccc(-c3nc4ccn5c(=O)[nH]nc5c4cc3-c3ccccc3)cc2)CCC1 [MK-2206] | > 30 µM (inactive)
10 | > 30 µM (inactive) | > 30 µM (inactive) | > 30 µM (inactive) | > 30 µM (inactive) | > 30 µM (inactive) | > 30 µM (inactive) | > 30 µM (inactive) | > 30 µM (inactive) | > 30 µM (inactive) | > 30 µM (inactive) | > 30 µM (inactive) | CN(C[C@@H]1COCCO1)S(=O)(=O)Nc1ccc2ccc3ncc(-c4cnn(C)c4)cc3c(=O)c2c1 [MK-2461] | > 30 µM (inactive)
11 | > 30 µM (inactive) | > 30 µM (inactive) | > 30 µM (inactive) | > 30 µM (inactive) | > 30 µM (inactive) | > 30 µM (inactive) | > 30 µM (inactive) | > 30 µM (inactive) | > 30 µM (inactive) | > 30 µM (inactive) | > 30 µM (inactive) | Cn1cc(-c2cnc3ccc4ccc(CS(=O)(=O)NCc5ccccn5)cc4c(=O)c3c2)cn1 [MK-8033] | > 30 µM (inactive)
